Measured values reported in patent US9670172B2, “Heterocyclic compounds and methods of use” (Medivation Technologies, Inc., priority 2014, dated 2017).
Where two headings read alike, the source gives them in different places.

Tests used:
[1] = HepG2 cell viability by MTS; type: cell-based; conditions: human, HepG2 cells, 3 days, DMEM without FBS, MTS, read-out: Average Viability (% Inhibition, n = 3)
Protocol: For viability measurements, HepG2 cells were seeded at 5,000 cells per well in 96-well plates in DMEM supplemented with 10% FBS. After 1 day in culture, cells were treated with compounds (20 μM & 5 μM) for 3 days in DMEM without FBS. Viability was measured by MTS. Treatment with compounds (20 μM & 5 μM) was carried out in medium without FBS, and viability was measured by MTS. […]

[2] = system: SREBP2; test: SREBP2 cleavage in HEPG2 cells (Western blot normalized to actin); type: cell-based; conditions: Homo sapiens, read-out: Average SREBP2 cleavage (% Inhibition, n = 3)
Protocol: Average SREBP2 cleavage in HEPG2 cells was measured in the presence of compounds disclosed in Table 1. HepG2 cells were seeded at 500,000 cells per well in 6-well plates in DMEM supplemented with 10% FBS. After 2 days, cells were treated with compounds (20 μM) for 1 day in DMEM without FBS. Western blots were normalized with respect to actin.
The results are shown in Table 3 as percent inhibition@20 μM, and in Table 4 as percent inhibition@5 μM.

[3] = 24 h, 20 μM, HepG2 cells, 1 day, DMEM without FBS

With `CCCc1cc(-c2nc(-c3ccc(NS(=O)(=O)C(F)(F)F)cc3)cs2)ccn1` [Compound 1, 1,1,1-trifluoro-N-(4-(2-(2-propylpyridin-4-yl)thiazol-4-yl)phenyl)methanesulfonamide] the cytotoxicity at 3 days, 20 μM [1] was 92.1% and the inhibition at 20 µM [2, 3] was 73.7%.

Work on `CCCc1cc(-c2nc(-c3cccc(NS(=O)(=O)C(F)(F)F)c3)cs2)ccn1` [Compound 2, 1,1,1-trifluoro-N-(3-(2-(2-propylpyridin-4-yl)thiazol-4-yl)phenyl)methanesulfonamide] yielded a cytotoxicity at 3 days, 20 μM [1] of 80.5% and an inhibition at 20 µM ([2]; HepG2, 24 h) of 73%.

In the case of `CCCc1cc(-c2nc(-c3ccc(NS(=O)(=O)C(F)(F)F)cc3Cl)cs2)ccn1` [Compound 4, N-(3-chloro-4-(2-(2-propylpyridin-4-yl)thiazol-4-yl)phenyl)-1,1,1-trifluoromethanesulfonamide], the cytotoxicity at 3 days, 20 μM [1] is reported as 94.4% and the inhibition at 20 µM ([2]; HepG2, 24 h) is reported as 96.1%.

In the case of `COc1cc(-c2csc(-c3ccnc(CC(C)C)c3)n2)ccc1NS(=O)(=O)C(F)(F)F` [Compound 57, 1,1,1-trifluoro-N-(2-methoxy-4-{2-[2-(2-methylpropyl)pyridin-4-yl]-1,3-thiazol-4-yl}phenyl)methanesulfonamide], the cytotoxicity at 3 days, 20 μM [1] is reported as 56.4% and the inhibition at 20 µM [2, 3] is reported as 46.9%.

For `CCCc1cc(-c2nc(-c3ccc(NS(=O)(=O)C(F)(F)F)c(OC)c3)cs2)ccn1` [Compound 58, 1,1,1-trifluoro-N-{2-methoxy-4-[2-(2-propylpyridin-4-yl)-1,3-thiazol-4-yl]phenyl}methanesulfonamide], the cytotoxicity at 3 days, 20 μM [1] was 67.9% and the inhibition at 20 µM [2, 3] was 29.4%.

Molecule `COc1cc(-c2csc(-c3ccnc(C(C)(C)C)c3)n2)ccc1NS(=O)(=O)C(F)(F)F` [Compound 59, N-(4-(2-(2-tert-butylpyridin-4-yl)thiazol-4-yl)-2-methoxyphenyl)-1,1,1-trifluoromethanesulfonamide] has a cytotoxicity at 3 days, 20 μM [1] of 99.8% and an inhibition at 20 µM [2, 3] of 60.6%.

`Nc1cc(-c2nc(-c3ccc(NS(=O)(=O)C(F)(F)F)cc3Cl)cs2)ccn1` [Compound 61, N-{4-[2-(2-aminopyridin-4-yl)-1,3-thiazol-4-yl]-3-chlorophenyl}-1,1,1-trifluoromethanesulfonamide] showed a cytotoxicity at 3 days, 20 μM [1] of 43% and an inhibition at 20 µM [2, 3] of 2%.

In the case of `CS(=O)(=O)Nc1cc(-c2nc(-c3ccc(NS(=O)(=O)C(F)(F)F)cc3Cl)cs2)ccn1` [Compound 62, N-{3-chloro-4-[2-(2-methanesulfonamidopyridin-4-yl)-1,3-thiazol-4-yl]phenyl}-1,1,1-trifluoromethanesulfonamide], the cytotoxicity at 3 days, 20 μM [1] is reported as 0% and the inhibition at 20 µM [2, 3] is reported as 0%.

In the case of `CCCc1cc(-c2nc(-c3ccc(NS(=O)(=O)C(F)(F)F)c(O)c3)cs2)ccn1` [Compound 63, 1,1,1-trifluoro-N-(2-hydroxy-4-(2-(2-propylpyridin-4-yl)thiazol-4-yl)phenyl)methanesulfonamide], the cytotoxicity at 3 days, 20 μM [1] is reported as 47% and the inhibition at 20 µM [2, 3] is reported as 39%.

Molecule `O=S(=O)(Nc1ccc(-c2csc(-c3ccnc(NS(=O)(=O)C(F)(F)F)c3)n2)c(Cl)c1)C(F)(F)F` [Compound 66, N-{3-chloro-4-[2-(2-trifluoromethanesulfonamidopyridin-4-yl)-1,3-thiazol-4-yl]phenyl}-1,1,1-trifluoromethanesulfonamide] has a cytotoxicity at 3 days, 20 μM [1] of 11% and an inhibition at 20 µM [2, 3] of 0%.

Work on `O=C(c1ccc(-c2nc(-c3ccc(NS(=O)(=O)C(F)(F)F)cc3Cl)cs2)cc1)N1CCCCC1` [Compound 67, N-(3-chloro-4-{2-[4-(piperidine-1-carbonyl)phenyl]-1,3-thiazol-4-yl}phenyl)-1,1,1-trifluoromethanesulfonamide] yielded a cytotoxicity at 3 days, 20 μM [1] of 20% and an inhibition at 20 µM [2, 3] of 3%.

In the case of `O=S(=O)(Nc1ccc(-c2csc(-c3ccc4cc[nH]c4c3)n2)c(Cl)c1)C(F)(F)F` [Compound 72, N-{3-chloro-4-[2-(1H-indol-6-yl)-1,3-thiazol-4-yl]phenyl}-1,1,1-trifluoromethanesulfonamide], the cytotoxicity at 3 days, 5 μM [1] is reported as 94% and the inhibition at 5 µM ([2]; HepG2 cells) is reported as 61%.

Molecule `O=S(=O)(Nc1ccc(-c2csc(-c3ccc(C(F)(F)F)c(OCc4ccccc4)c3)n2)c(Cl)c1)C(F)(F)F` [Compound 73, N-(4-{2-[3-(benzyloxy)-4-(trifluoromethyl)phenyl]-1,3-thiazol-4-yl}-3-chlorophenyl)-1,1,1-trifluoromethanesulfonamide] has a cytotoxicity at 3 days, 5 μM [1] of 99% and an inhibition at 5 µM ([2]; HepG2 cells) of 64%.

`O=S(=O)(Nc1ccc(-c2csc(-c3ccccc3-c3ccccc3)n2)c(Cl)c1)C(F)(F)F` [Compound 74, N-{3-chloro-4-[2-(2-phenylphenyl)-1,3-thiazol-4-yl]phenyl}-1,1,1-trifluoromethanesulfonamide] gave a cytotoxicity at 3 days, 5 μM [1] of 97% and an inhibition at 5 µM ([2]; HepG2 cells) of 76%.

`O=S(=O)(Nc1ccc(-c2csc(-c3cncc4ccccc34)n2)c(Cl)c1)C(F)(F)F` [Compound 75, N-{3-chloro-4-[2-(isoquinolin-4-yl)-1,3-thiazol-4-yl]phenyl}-1,1,1-trifluoromethanesulfonamide] gave a cytotoxicity at 3 days, 5 μM [1] of 88% and an inhibition at 5 µM ([2]; HepG2 cells) of 55%.

In the case of `CN1CCN(c2cc(-c3nc(-c4ccc(NS(=O)(=O)C(F)(F)F)cc4Cl)cs3)ccn2)CC1` [Compound 76, N-(3-chloro-4-{2-[2-(4-methylpiperazin-1-yl)pyridin-4-yl]-1,3-thiazol-4-yl}phenyl)-1,1,1-trifluoromethanesulfonamide], the cytotoxicity at 3 days, 5 μM [1] is reported as 3% and the inhibition at 5 µM ([2]; HepG2 cells) is reported as 7%.

With `Cc1noc(C)c1-c1nc(-c2ccc(NS(=O)(=O)C(F)(F)F)cc2Cl)cs1` [Compound 77, N-{3-chloro-4-[2-(dimethyl-1,2-oxazol-4-yl)-1,3-thiazol-4-yl]phenyl}-1,1,1-trifluoromethanesulfonamide] the cytotoxicity at 3 days, 5 μM [1] was 41% and the inhibition at 5 µM ([2]; HepG2 cells) was 56%.

Work on `Cc1ccc(S(=O)(=O)Nc2cccc(-c3nc(-c4ccc(NS(=O)(=O)C(F)(F)F)cc4Cl)cs3)c2)cc1` [Compound 78, N-{3-[4-(2-chloro-4-trifluoromethanesulfonamidophenyl)-1,3-thiazol-2-yl]phenyl}-4-methylbenzene-1-sulfonamide] yielded a cytotoxicity at 3 days, 5 μM [1] of 87% and an inhibition at 5 µM ([2]; HepG2 cells) of 38%.

Molecule `COc1ccc(-c2nc(-c3ccc(NS(=O)(=O)C(F)(F)F)cc3Cl)cs2)cc1OC` [Compound 79, N-{3-chloro-4-[2-(3,4-dimethoxyphenyl)-1,3-thiazol-4-yl]phenyl}-1,1,1-trifluoromethanesulfonamide] has a cytotoxicity at 3 days, 5 μM [1] of 74% and an inhibition at 5 µM ([2]; HepG2 cells) of 65%.

In the case of `O=S(=O)(Nc1ccc(-c2csc(-c3ccc(F)cc3C(F)(F)F)n2)c(Cl)c1)C(F)(F)F` [Compound 81, N-[3-chloro-4-[2-[4-fluoro-2-(trifluoromethyl)phenyl]thiazol-4-yl]phenyl]-1,1,1-trifluoro-methanesulfonamide], the cytotoxicity at 3 days, 5 μM [1] is reported as 88% and the inhibition at 5 µM ([2]; HepG2 cells) is reported as 44%.

`O=S(=O)(Nc1ccc(-c2csc(-c3cccc(CO)c3)n2)c(Cl)c1)C(F)(F)F` [Compound 83, N-(3-chloro-4-{2-[3-(hydroxymethyl)phenyl]-1,3-thiazol-4-yl}phenyl)-1,1,1-trifluoromethanesulfonamide] gave a cytotoxicity at 3 days, 5 μM [1] of 0% and an inhibition at 5 µM ([2]; HepG2 cells) of 2%.

`O=S(=O)(Nc1ccc(-c2csc(-c3ccccc3CO)n2)c(Cl)c1)C(F)(F)F` [Compound 84, N-(3-chloro-4-{2-[2-(hydroxymethyl)phenyl]-1,3-thiazol-4-yl}phenyl)-1,1,1-trifluoromethanesulfonamide] showed a cytotoxicity at 3 days, 5 μM [1] of 18% and an inhibition at 5 µM ([2]; HepG2 cells) of 20%.

`Cc1cnccc1-c1nc(-c2ccc(NS(=O)(=O)C(F)(F)F)cc2Cl)cs1` [Compound 86, N-{3-chloro-4-[2-(3-methylpyridin-4-yl)-1,3-thiazol-4-yl]phenyl}-1,1,1-trifluoromethanesulfonamide] showed a cytotoxicity at 3 days, 5 μM [1] of 27% and an inhibition at 5 µM ([2]; HepG2 cells) of 54%.

`O=S(=O)(Nc1ccc(-c2csc(-c3ccnc4[nH]ccc34)n2)c(Cl)c1)C(F)(F)F` [Compound 87, N-[3-chloro-4-(2-{1H-pyrrolo[2,3-b]pyridin-4-yl}-1,3-thiazol-4-yl)phenyl]-1,1,1-trifluoromethanesulfonamide] showed a cytotoxicity at 3 days, 5 μM [1] of 9% and an inhibition at 5 µM ([2]; HepG2 cells) of 50%.

Work on `O=S(=O)(Nc1ccc(-c2csc(-c3c(F)cnc4[nH]ccc34)n2)c(Cl)c1)C(F)(F)F` [Compound 89, N-[3-chloro-4-(2-{5-fluoro-1H-pyrrolo[2,3-b]pyridin-4-yl}-1,3-thiazol-4-yl)phenyl]-1,1,1-trifluoromethanesulfonamide] yielded an inhibition at 5 µM ([2]; HepG2 cells) of 53%.

Work on `O=S(=O)(Nc1ccc(-c2csc(-c3csc4ccccc34)n2)c(Cl)c1)C(F)(F)F` [Compound 90, N-{4-[2-(1-benzothiophen-3-yl)-1,3-thiazol-4-yl]-3-chlorophenyl}-1,1,1-trifluoromethanesulfonamide] yielded a cytotoxicity at 3 days, 5 μM [1] of 99% and an inhibition at 5 µM ([2]; HepG2 cells) of 64%.

Molecule `O=S(=O)(Nc1ccc(-c2csc(-c3ccc(F)cc3CN3CCCC3)n2)c(Cl)c1)C(F)(F)F` [Compound 91, N-(3-chloro-4-{2-[4-fluoro-2-(pyrrolidin-1-ylmethyl)phenyl]-1,3-thiazol-4-yl}phenyl)-1,1,1-trifluoromethanesulfonamide] has a cytotoxicity at 3 days, 5 μM [1] of 4% and an inhibition at 5 µM ([2]; HepG2 cells) of 16%.
